# Test results taken from patent US20170319562A1, “Compositions and Methods for Extended Therapy with Aminopyridines” (Acorda Therapeutics, Inc., priority 2009, published 2017).
# Where two headings read alike, the source gives them in different places.
# Experiments:
# [1] = system: normal adult myelinated axons; settings: cited from earlier work
# [2] = Single 20 mg intravenous dose, volume of distribution; assay type: in vivo; settings: plasma
# Text: Measurable levels are present in the saliva.
# [3] = cited from earlier work; for bioavailability: AUC(0-∞) i.v. vs p.o. 2 mg/kg
# [4] = oral, non-sustained release; cited from earlier work
# [5] = system: patients with multiple sclerosis; test: MS-F202 Phase 2 double-blind placebo-controlled dose-comparison study; assay type: in vivo, human; design: change in overall Ashworth score, Mean: scale not given here
# Description: The Phase 2, dose-ranging study (MS-F202) was a double-blind, randomized, placebo-controlled, parallel group study with dose levels of 4-aminopyridine-SR of 10 mg, 15 mg or 20 mg b.i.d. Patients were titrated to their randomized dose over two weeks; and the fixed-dose treatment phase was 12 weeks in duration. The prospectively defined primary efficacy variable was the percent change from baseline in average walking speed on the T25FW over the last three visits on the assigned stable dose. Other secondary efficacy variables were the other MSFC assessments (9-hole peg test and PASAT 3″), MSFC combined score, LEMMT, the 12-item Multiple Sclerosis Walking Scale (MSWS-12), Multiple Sclerosis Quality of Life Inventory (MSQLI), Ashworth spasticity score, Clinician Global Impression (CGI), and Subject Global Impression (SGI).
# In the study MS-F202, the primary efficacy variable was the percent change from baseline in average walking speed measured using the T25FW. The following sections provide details on the different assessments.
# A total of 206 patients with multiple sclerosis were randomized and 195 completed treatment (50/52 on 4-aminopyridine-SR 10 mg b.i.d., 49/50 on 15 mg b.i.d., 51/57 on 20 mg b.i.d. and 45/47 on placebo). The prospectively defined primary efficacy variable was the percent change from baseline in average walking speed on the T25FW over the last three visits on the assigned dose (Visits 7-9, the post-titration, stable dose period). The secondary efficacy variable was response, defined as a 20% or greater improvement in walking speed during the 12-week stable-dose double-blind treatment period (i.e. measurements at Visits 7-9). Other secondary efficacy variables were the other MSFC assessments (9-hole peg test and PASAT 3″), MSFC combined score, LEMMT, MSWS-12, MSQLI, Ashworth spasticity score, CGI, and SGI.
# This example provides an embodiment of a method of treating subjects with a sustained release 4-aminopyridine formulation and a Responder analysis of the present invention. This was a Phase 2, double-blind, placebo-controlled, parallel group, 20-week treatment study in 206 subjects diagnosed with multiple sclerosis. This study was designed to investigate the safety and efficacy of three dose levels of 4-aminopyridine-SR, 10 mg b.i.d., 15 mg b.i.d., and 20 mg b.i.d. in subjects with clinically definite multiple sclerosis. The primary efficacy endpoint was an increase, relative to baseline, in walking speed, on the Timed 25 Foot Walk. Secondary efficacy measurements included lower extremity manual muscle testing in four groups of lower extremity muscles (hip flexors, knee flexors, knee extensors, and ankle dorsiflexors); the 9-Hole Peg Test and Paced Auditory Serial Addition Test (PASAT 3″); the Ashworth score for spasticity; Spasm Frequency/Severity scores; as well as a Clinician's (CGI) and Subject's (SGI) Global Impressions, a Subject's Global Impression (SGI), the Multiple Sclerosis Quality of Life Inventory (MSQLI) and the 12-Item Multiple Sclerosis Walking Scale (MSW S-12).
# At the first visit (Visit 0), subjects were to enter into a two-week single-blind placebo run-in period for the purpose of establishing baseline levels of function. At Visit 2 subjects were to be randomized to one of four treatment groups (Placebo or 4-aminopyridine-SR 10 mg, 15 mg, 20 mg) and begin two weeks of double-blind dose-escalation in the active drug treatment groups (B, C and D). Group A were to receive placebo throughout the study. Subjects in the 10 mg (Group B) arm of the study took a dose of 10 mg approximately every 12 hours during both weeks of the escalation phase. The 15 mg (Group C) and 20 mg (Group D) dose subjects took a dose of 10 mg approximately every 12 hours during the first week of the escalation phase and titrated up to 15 mg b.i.d. in the second week. Subjects were to be instructed to adhere to an “every 12 hour” dosing schedule. […]
# [6] = Fampridine Non-responders, 1st stbl
# [7] = Fampridine Non-responders, 2nd stbl
# [8] = Fampridine Non-responders, 3rd stbl
# [9] = Fampridine Non-responders, titration
# [10] = Fampridine Responders, 1st stbl
# [11] = Fampridine Responders, 2nd stbl
# [12] = Fampridine Responders, 3rd stbl
# [13] = Fampridine Responders, titration
structure (smiles),measurement,setting,value
Nc1ccncc1 [4-aminopyridine],concentrations causing gradual depolarization of the axon resting potential,[1],above 1 mM
same,concentrations at which the action potential shows little or no sensitivity,[1]; normal adult myelinated axons,below 100 μM
same,Vd,[2],2.6 L/kg
same,bioavailability,[3]; female rats,~55%
same,bioavailability,[3]; male rats,approximately 66.5%
same,peak plasma concentrations lower in females than in males,[3]; oral administration,38%
same,time of peak plasma concentrations after dosing,[4],≤ 1 h
same,rate of serious AE's,[5]; 10 mg bid,0%
same,rate of serious AE's,[5]; 15 mg bid,10%
same,rate of serious AE's,[5]; 20 mg bid,12%
same,"mean reduction from baseline in Overall Ashworth Score, range over visits","[5]; 4-aminopyridine Responders, double-blind",−0.18 to −0.11 units
same,"change in overall Ashworth score, Mean",[5]; [6],−0.08
same,"percent change in LEMMT, Mean",[5]; [6],0.10
same,"percent change in Walking Speed, Mean",[5]; [6],3.5
same,"change in overall Ashworth score, Mean",[5]; [7],−0.07
same,"percent change in LEMMT, Mean",[5]; [7],0.09
same,"percent change in Walking Speed, Mean",[5]; [7],−0.2
same,"change in overall Ashworth score, Mean",[5]; [8],0.00
same,"percent change in LEMMT, Mean",[5]; [8],0.10
same,"percent change in Walking Speed, Mean",[5]; [8],−6.5
same,"change in overall Ashworth score, Mean",[5]; [9],−0.16
same,"percent change in LEMMT, Mean",[5]; [9],0.12
same,"percent change in Walking Speed, Mean",[5]; [9],8.3
same,"change in overall Ashworth score, Mean",[5]; [10],−0.18
same,"percent change in LEMMT, Mean",[5]; [10],0.09
same,"percent change in Walking Speed, Mean",[5]; [10],24.6
same,"change in overall Ashworth score, Mean",[5]; [11],−0.11
same,"percent change in LEMMT, Mean",[5]; [11],0.09
same,"percent change in Walking Speed, Mean",[5]; [11],29.0
same,"change in overall Ashworth score, Mean",[5]; [12],−0.18
same,"percent change in LEMMT, Mean",[5]; [12],0.17
same,"percent change in Walking Speed, Mean",[5]; [12],27.3
same,"change in overall Ashworth score, Mean",[5]; [13],−0.14
same,"percent change in LEMMT, Mean",[5]; [13],0.18
same,"percent change in Walking Speed, Mean",[5]; [13],27.4
same,post hoc Responder rate (consistently faster walking speeds on drug),[5]; combined/pooled 4-aminopyridine-SR groups,approximately 37%
